Experimental data published in ChEMBL document CHEMBL1201862, “PubChem BioAssay data set” (2004).
Active and inactive are the calls of the source.

What was measured:
[1] = molecular target: T1, Corticotropin-releasing factor receptor 2/Corticotropin-releasing factor-binding protein (Homo sapiens, UniProt P24387+Q13324); experiment: activators of CRF receptor 2 with binding protein – uHTS hits, confirmation (AID 602473); type: functional; conditions: read-out: EC50_Mean
T1 sequence (Q13324 whole entry): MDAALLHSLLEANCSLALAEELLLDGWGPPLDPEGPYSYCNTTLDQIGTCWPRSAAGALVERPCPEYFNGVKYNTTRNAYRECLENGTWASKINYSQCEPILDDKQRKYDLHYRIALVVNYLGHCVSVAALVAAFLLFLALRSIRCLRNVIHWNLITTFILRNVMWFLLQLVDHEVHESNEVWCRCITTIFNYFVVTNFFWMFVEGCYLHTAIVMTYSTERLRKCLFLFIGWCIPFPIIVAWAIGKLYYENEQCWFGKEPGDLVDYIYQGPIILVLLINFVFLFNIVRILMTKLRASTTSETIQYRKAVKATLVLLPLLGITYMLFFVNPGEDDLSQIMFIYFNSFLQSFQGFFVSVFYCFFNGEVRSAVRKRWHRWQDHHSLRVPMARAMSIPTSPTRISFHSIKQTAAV
T1 sequence (P24387 whole entry): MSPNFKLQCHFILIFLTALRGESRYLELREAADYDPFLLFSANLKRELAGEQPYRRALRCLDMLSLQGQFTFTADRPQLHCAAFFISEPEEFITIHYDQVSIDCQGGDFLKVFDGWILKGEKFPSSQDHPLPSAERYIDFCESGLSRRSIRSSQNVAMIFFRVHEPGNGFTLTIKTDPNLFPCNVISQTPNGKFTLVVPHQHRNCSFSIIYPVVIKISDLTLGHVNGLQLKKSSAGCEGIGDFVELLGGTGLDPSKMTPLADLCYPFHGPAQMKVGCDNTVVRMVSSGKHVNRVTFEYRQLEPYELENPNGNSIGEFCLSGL

[2] = molecular target: T2, fMet-Leu-Phe receptor (Homo sapiens, UniProt P21462); experiment: formyl peptide receptor binders – dose response (AID 519); type: functional
T2 sequence (P21462 whole entry): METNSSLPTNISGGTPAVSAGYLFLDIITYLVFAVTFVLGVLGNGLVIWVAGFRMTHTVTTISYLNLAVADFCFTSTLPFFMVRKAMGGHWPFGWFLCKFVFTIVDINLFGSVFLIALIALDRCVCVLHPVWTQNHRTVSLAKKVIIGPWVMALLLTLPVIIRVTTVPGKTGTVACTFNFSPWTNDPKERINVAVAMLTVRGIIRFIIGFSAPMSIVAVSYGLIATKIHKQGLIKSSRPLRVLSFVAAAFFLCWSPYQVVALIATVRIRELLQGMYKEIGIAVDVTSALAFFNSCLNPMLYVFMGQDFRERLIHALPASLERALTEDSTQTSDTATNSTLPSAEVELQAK

[3] = molecular target: T1, Corticotropin-releasing factor receptor 2/Corticotropin-releasing factor-binding protein; experiment: Dose Response confirmation of uHTS hits for small molecule antagonists of the CRF-binding protein and CRF-R2 receptor complex.; type: functional; conditions: read-out: IC50_Mean
[4] = molecular target: Prothrombin (Homo sapiens, UniProt P00734); experiment: Thrombin 1536 HTS Dose Response Confirmation. [Related pubchem assays: 1046 (Thrombin 1536 HTS; hits were confirmed in this assay)]; type: functional
[5] = system: Streptococcus sp. 'group A'; experiment: Streptococcus pyogenes SK(-)GAS viability under kanamycin – luminescence, BacTiterGlo, confirmation, counter-screen for streptokinase expression inhibitor project, dose response (AID 1900); type: functional, organism-based
[6] = Luminescence Cell-Based Dose Retest to Confirm Inhibitors of Cancer Stem Cells. [Related pubchem assays (depositor defined):AID2717, AID2721]; type: functional; conditions: Homo sapiens
[7] = molecular target: T3, Streptokinase A (Streptococcus pyogenes serotype M1, UniProt P10520); experiment: viability-normalized secreted streptokinase activity reduction – plasminogen activation absorbance, OD405, dose response (AID 1914); type: functional, Streptococcus pyogenes M1 GAS;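 further: secreted streptokinase activity via plasminogen activation per viability signal from cell pellet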
T3 sequence (P10520 whole entry): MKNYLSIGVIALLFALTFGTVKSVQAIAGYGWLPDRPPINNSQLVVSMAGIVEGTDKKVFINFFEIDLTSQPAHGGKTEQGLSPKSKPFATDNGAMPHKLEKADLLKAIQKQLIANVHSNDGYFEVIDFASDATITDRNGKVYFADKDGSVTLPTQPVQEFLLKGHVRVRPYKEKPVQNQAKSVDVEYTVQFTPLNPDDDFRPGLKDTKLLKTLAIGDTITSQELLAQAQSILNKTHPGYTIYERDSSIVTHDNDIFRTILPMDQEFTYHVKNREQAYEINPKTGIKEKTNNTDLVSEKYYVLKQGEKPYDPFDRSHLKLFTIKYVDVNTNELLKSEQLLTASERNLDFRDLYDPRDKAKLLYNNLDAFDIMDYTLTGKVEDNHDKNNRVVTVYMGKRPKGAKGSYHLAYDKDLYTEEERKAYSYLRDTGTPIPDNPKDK

[8] = system: Streptococcus; experiment: GAS UMAA2166 growth inhibition – luminescence, BacTiterGlo, counter-screen for streptokinase expression inhibitor project, dose response (AID 1915); type: functional, organism-based;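 further: potency for reduction of bacterial viability or growth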
[9] = molecular target: Paired box protein Pax-8 (Homo sapiens, UniProt Q06710); experiment: PAX8 transcriptional activity inhibition in RMG-I – RMG-I cells, luciferase, cherry-pick, dose response (AID 687027); type: functional, cell-based;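 further: luciferase reporter driven by Pax8 target thyroperoxidase promoter measured by SteadyGlo luminescence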
[10] = general cell-killing toxicity readout – plate reader, dry powder samples, cytotoxicity control for PAX8 inhibitor project, dose response (AID 743021); type: functional, cell-based
[11] = system: H9c2; experiment: cells; type: functional, cell-based; conditions: Rattus norvegicus, H9c2, Myocardium;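 further: confirmatory concentration-response retest of ultra-high-throughput screening hits for modulation of myocardial damage; cell death induced by hydrogen peroxide oxidative stress; compound pretreatment for 60 min then peroxide exposure for 2 h; potency is for protecting the cells against peroxide damage rather than for killing them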
[12] = molecular target: Cytochrome P450 2C19 (Homo sapiens, UniProt P33261); experiment: Cytochrome panel assay with activity outcomes. Panel member name: p450-cyp2c19 Compounds with AC50 equal or less than 10 uM are considered active; type: functional; conditions: read-out: AC50
[13] = molecular target: Cytochrome P450 2C9 (Homo sapiens, UniProt P11712)
[14] = A Cell Based Secondary Assay To Explore Cytotoxicity of Compounds that Sensitize Mycobacterium Tuberculosis to Beta-Lactam Antibiotics.; type: functional
[15] = molecular target: Induced myeloid leukemia cell differentiation protein Mcl-1 (Homo sapiens, UniProt Q07820); type: functional
[16] = molecular target: T4, Histone-lysine N-methyltransferase NSD2 (Homo sapiens, UniProt O96028); type: biochemical
T4 sequence (O96028 whole entry): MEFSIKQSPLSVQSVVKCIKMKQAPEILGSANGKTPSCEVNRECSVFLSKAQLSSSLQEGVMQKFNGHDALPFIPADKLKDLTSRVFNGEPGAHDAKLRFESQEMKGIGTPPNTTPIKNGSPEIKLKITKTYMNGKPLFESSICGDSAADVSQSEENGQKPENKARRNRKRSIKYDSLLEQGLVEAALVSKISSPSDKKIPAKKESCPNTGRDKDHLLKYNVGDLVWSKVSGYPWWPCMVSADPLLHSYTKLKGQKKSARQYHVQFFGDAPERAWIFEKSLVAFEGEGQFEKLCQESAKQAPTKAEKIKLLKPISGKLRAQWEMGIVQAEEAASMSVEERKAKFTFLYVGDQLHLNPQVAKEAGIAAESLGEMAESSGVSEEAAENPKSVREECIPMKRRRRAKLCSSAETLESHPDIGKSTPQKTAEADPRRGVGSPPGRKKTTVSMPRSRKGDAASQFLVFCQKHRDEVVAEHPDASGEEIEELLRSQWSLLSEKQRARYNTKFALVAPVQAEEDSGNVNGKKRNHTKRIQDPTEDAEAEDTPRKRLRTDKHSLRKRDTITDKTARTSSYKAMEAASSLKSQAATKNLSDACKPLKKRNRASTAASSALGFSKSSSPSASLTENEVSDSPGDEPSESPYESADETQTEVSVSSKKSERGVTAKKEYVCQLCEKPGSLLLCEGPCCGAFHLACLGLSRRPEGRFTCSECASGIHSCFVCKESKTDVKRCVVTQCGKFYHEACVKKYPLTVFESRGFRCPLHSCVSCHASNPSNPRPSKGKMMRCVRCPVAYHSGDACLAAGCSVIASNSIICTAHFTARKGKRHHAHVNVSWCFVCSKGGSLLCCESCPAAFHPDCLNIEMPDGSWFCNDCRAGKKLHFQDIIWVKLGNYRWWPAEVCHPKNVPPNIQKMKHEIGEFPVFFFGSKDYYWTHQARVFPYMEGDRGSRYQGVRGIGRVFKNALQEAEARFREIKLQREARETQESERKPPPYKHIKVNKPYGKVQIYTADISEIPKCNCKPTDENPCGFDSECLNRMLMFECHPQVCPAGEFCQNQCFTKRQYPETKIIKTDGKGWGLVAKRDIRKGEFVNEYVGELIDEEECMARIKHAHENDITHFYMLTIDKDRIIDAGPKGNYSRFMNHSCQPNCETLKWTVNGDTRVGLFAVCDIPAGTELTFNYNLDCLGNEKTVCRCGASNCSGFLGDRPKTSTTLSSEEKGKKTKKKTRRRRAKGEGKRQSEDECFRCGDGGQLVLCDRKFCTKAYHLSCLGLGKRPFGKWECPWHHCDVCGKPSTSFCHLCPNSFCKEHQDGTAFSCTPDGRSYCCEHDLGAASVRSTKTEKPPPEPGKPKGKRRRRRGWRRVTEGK

[17] = molecular target: T5, Calpain-2 catalytic subunit (Sus scrofa, UniProt P43367); experiment: m-calpain protease blockers, concentration series – biochemical, fluorogenic peptide substrate, dose response (AID 1420); type: functional
T5 sequence (P43367 whole entry): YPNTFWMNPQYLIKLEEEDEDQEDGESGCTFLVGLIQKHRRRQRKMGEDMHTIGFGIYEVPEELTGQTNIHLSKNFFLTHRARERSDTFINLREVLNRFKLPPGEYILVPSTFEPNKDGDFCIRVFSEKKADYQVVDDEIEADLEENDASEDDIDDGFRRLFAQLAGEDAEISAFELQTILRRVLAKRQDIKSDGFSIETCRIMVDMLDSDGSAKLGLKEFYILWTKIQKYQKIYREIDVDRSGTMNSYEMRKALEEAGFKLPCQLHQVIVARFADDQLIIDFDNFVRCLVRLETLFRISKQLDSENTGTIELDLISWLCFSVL

[18] = microbe, parasite or virus in culture; type: functional; conditions: Mycobacterium tuberculosis
[19] = system: INS1; experiment: INS-1E survival protection against cytokine death – cell-based, luminescence, retest, dose response (AID 449756); type: functional; conditions: Rattus norvegicus;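 further: cell death triggered by IL-1 beta plus TNF-alpha plus IFN-gamma mixture; protective hits raise ATP signal compared with cytokine alone wells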
[20] = OVCAR-3 cell viability loss – plate reader, dry powder samples, PAX8 inhibitor project, dose response (AID 743044); type: functional, cell-based

Chain of Paired box protein Pax-8 (Q06710 whole entry): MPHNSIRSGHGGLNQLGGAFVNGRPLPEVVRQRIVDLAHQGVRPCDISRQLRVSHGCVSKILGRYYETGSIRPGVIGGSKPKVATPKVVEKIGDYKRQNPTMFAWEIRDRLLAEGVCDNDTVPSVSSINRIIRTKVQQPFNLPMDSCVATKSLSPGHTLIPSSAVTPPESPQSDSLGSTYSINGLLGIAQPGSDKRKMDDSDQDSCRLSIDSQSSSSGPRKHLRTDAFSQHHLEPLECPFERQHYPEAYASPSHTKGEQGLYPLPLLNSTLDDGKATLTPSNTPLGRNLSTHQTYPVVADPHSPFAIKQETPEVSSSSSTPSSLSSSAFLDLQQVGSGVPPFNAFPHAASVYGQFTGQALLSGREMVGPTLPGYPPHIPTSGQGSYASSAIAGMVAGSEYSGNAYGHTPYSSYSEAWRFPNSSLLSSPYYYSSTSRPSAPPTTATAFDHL
Chain of Induced myeloid leukemia cell differentiation protein Mcl-1 (Q07820 whole entry): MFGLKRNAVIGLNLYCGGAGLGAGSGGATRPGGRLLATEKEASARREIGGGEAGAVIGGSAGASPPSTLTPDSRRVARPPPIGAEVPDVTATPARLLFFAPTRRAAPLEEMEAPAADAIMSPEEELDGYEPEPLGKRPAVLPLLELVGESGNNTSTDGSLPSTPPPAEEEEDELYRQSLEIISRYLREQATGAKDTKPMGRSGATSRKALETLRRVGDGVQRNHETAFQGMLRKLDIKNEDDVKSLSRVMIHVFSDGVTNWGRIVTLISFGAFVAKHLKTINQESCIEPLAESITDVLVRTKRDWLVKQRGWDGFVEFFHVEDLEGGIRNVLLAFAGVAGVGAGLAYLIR
Chain of Cytochrome P450 2C9 (P11712 whole entry): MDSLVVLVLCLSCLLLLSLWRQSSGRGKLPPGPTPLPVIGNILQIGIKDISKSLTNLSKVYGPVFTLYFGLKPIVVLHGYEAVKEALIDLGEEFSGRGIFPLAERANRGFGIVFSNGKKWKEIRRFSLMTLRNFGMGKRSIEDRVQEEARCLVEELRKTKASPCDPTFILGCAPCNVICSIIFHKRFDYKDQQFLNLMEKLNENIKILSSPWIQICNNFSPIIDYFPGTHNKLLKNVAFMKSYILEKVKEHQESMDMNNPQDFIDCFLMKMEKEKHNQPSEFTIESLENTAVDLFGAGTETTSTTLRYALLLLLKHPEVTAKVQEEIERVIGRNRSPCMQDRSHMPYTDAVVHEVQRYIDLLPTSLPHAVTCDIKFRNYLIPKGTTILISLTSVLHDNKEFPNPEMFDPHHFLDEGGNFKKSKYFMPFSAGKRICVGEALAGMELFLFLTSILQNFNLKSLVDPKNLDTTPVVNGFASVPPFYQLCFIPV
Chain of Cytochrome P450 2C19 (P33261 whole entry): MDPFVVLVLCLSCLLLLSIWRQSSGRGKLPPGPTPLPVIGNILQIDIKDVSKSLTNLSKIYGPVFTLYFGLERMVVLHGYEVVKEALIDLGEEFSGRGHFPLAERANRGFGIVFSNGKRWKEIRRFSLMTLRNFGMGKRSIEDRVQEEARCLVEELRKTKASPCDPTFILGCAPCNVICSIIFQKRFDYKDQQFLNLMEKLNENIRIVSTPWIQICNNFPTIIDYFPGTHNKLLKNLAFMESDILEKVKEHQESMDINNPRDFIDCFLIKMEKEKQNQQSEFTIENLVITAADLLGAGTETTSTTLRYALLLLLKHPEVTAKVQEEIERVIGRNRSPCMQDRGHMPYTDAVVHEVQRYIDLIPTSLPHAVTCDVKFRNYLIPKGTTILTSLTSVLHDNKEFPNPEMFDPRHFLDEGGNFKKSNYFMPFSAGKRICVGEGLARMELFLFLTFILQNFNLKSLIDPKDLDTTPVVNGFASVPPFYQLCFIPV

COc1cc(C2C(C(=O)c3ccco3)=C(O)C(=O)N2c2cc(C)on2)cc(Br)c1O (stereo not drawn)
EC50 [1]: > 53 µM (inactive) | Ki [2]: 47.7 µM (inactive) | IC50 [3]: > 47.1 µM (inactive)

COc1ccccc1Oc1c(C)oc2c(CN(C)C)c(O)ccc2c1=O
Ki [2]: > 66.7 µM (inactive)

CC(C)Nc1nc(C#N)nc(NC(C)C)n1
IC50 [4]: 23 µM (active)

O=C(Nc1cccc(NC(=O)c2ccc([N+](=O)[O-])o2)c1)c1ccco1
EC50 [5]: 7.34 µM (active) | AC50 [6]: 2.95 µM (active) | EC50 [7]: 111 µM (active) | EC50 [8]: 22.7 µM (active) | AC50 [9]: 5.2 µM (active) | AC50 [10]: 66.2 µM (active) | IC50 [11]: > 79 µM (inactive)

Cc1nc2c(C)cccn2c1C(=O)C1=C(O)C(=O)N(CCN2CCOCC2)C1c1cccs1 (stereo not drawn)
AC50 [12]: 8.91 µM (inconclusive) | Ki [2]: > 66.7 µM (inactive) | AC50 [13]: 10 µM (inconclusive)

Cc1ccc(OCc2nnc(S)n2N)cc1C
IC50 [4]: > 50 µM (not active)

COC(=O)Cc1ccc(NC(=S)N2CCN(c3ccc(F)cc3)CC2)cc1
IC50 [4]: > 50 µM (not active)

Nc1nc(-c2cccnc2)nn1C(=O)c1ccc(Cl)cc1
IC50 [4]: 0.781 µM (active)

COc1ccc(-c2cc(-c3ccc(OC)cc3)nc(-c3ccc4c(c3)NC(=O)CO4)c2)cc1
CC50 [14]: 38.7 µM (active)

COC(=O)c1[nH]c2ccccc2c1/C=C1\C(=O)NC(=O)N(c2ccc(Br)cc2)C1=O
IC50 [15]: 9.03 µM (active) | AC50 [16]: > 20 µM (inactive)

O=C(c1cccnc1)n1nc(-c2ccco2)nc1NCc1cccs1
IC50 [4]: 0.001 µM (active)

COc1cccc(NS(=O)(=O)c2ccc3ncc(C(=O)NCCC(C)C)c(O)c3c2)c1
CC50 [14]: > 40 µM (active)

CCOC(=O)N1CCC(NC(=O)c2cc(C(=O)Nc3ccc(OC)c(OC)c3)ccc2CO)CC1
Ki [2]: > 66.7 µM (inactive)

CCCCCCCNC1=CC(=O)CC(c2ccccc2)C1 (stereo not drawn)
IC50 [17]: 9.58 µM (not active) | CC50 [18]: 38 µM (active) | AC50 [19]: 6.36 µM (active)

CC(C)NC(=O)N(C)C[C@H]1OCCCC[C@H](C)Oc2ccc(NC(=O)Nc3ccc(C(F)(F)F)cc3)cc2C(=O)N([C@H](C)CO)C[C@@H]1C
AC50 [20]: 53.3 µM (active) | AC50 [9]: 12.5 µM (active)

COc1ccc(OC)c(C2C(C(=O)c3ccco3)=C(O)C(=O)N2CCCN2CCOCC2)c1 (stereo not drawn)
Ki [2]: 26.4 µM (inactive)

O=C(NCC1CC1)c1ccc(-n2ccnc2)c2ccoc12
AC50 [16]: 14.1 µM (active)

CCN(CC)CCNC(=O)c1ccc(NC(=O)c2cn(-c3ccccc3)nc2-c2cccs2)cc1
CC50 [18]: 7.35 µM (active) | AC50 [19]: 6.79 µM (active)
